# Experimental data reported in ChEMBL document CHEMBL6177954, “Identification of imidazo[1,2-a]pyridine-3-amine as a novel drug-like scaffold for efficious ferroptosis inhibition in vivo” (Eur J Med Chem, 2025).
# The source made the active and inactive calls. No cut-off for these calls is given here.
# What was measured:
# SH-SY5Y [1] = assay: Anti-ferroptosis activity against RSL3-induced ferroptosis in human SH-SY5Y cells assessed as reversal of ferroptosis by measuring cell viability measured after 48 hrs by MTT assay; assay type: functional, cell-based
# [2] = Metabolic stability in rat liver homogenate assessed as half life; assay type: ADME, tissue-based
# [3] = Plasma stability in human plasma assessed as half life; assay type: ADME, cell-free
# [4] = Plasma stability in rat plasma assessed as half life; assay type: ADME, cell-free
# [5] = Metabolic stability in rat liver homogenate assessed as recovery measured after 12 hrs; assay type: ADME, tissue-based; details: read-out: Drug recovery
# [6] = Plasma stability in human plasma assessed as recovery measured after 12 hrs; assay type: ADME, cell-free; details: read-out: Drug recovery
# [7] = Plasma stability in rat plasma assessed as recovery measured after 12 hrs; assay type: ADME, cell-free; details: read-out: Drug recovery
# [8] = Metal chelating activity assessed as compound-Fe3+ complex formation by UV-Vis absorption spectra analysis
# [9] = Metal chelating activity assessed as compound-Fe2+ complex formation by UV-Vis absorption spectra analysis
# [10] = Antioxidant activity assessed as DPPH radical scavenging activity measured after 30 mins in dark by (DPPH) bleaching assay; assay type: functional
# [11] = Free radical trapping antioxidant activity in di-tert-undecyl hyponitrite (DTUN) trigged STY-BODIPY-embedded egg phosphatidylcholine liposomes assessed as inhibition of phospholipid peroxidation by measuring inhibition rate constant of STY-BODIPY at 1 uM by fluorescence-enabled inhibited autoxidation method (FENIX); assay type: functional
# L02 = assay: Cytotoxicity against human LO2 cells at 30 uM measured after 48 hrs incubation by MTT assay; assay type: toxicity, cell-based; details: l02, 48 h
# [12] = Cytotoxicity against human HUVEC at 30 uM measured after 48 hrs incubation by MTT assay; assay type: toxicity, cell-based; details: huve
# HT-1080 [13] = assay: Anti-ferroptosis activity against RSL3-induced ferroptosis in human HT-1080 cells assessed as reversal of ferroptosis by measuring cell viability measured after 48 hrs by MTT assay; assay type: functional, cell-based
# OS-RC-2 = assay: Anti-ferroptosis activity against RSL3-induced ferroptosis in human OS-RC-2 cells assessed as reversal of ferroptosis by measuring cell viability measured after 48 hrs by MTT assay; assay type: functional, cell-based
# HT-1080 [14] = assay: Prevention of RSL3-induced ferroptosis morphological changes in human HT-1080 cells assessed as shrinkage, swelling, and membrane rupture measured up to 48 hrs; assay type: functional, cell-based
# SH-SY5Y [15] = assay: Prevention of TSZ-induced necroptosis in human SH-SY5Y cells assessed as cell viability at 5 uM measured after 48 hrs by MTT assay; assay type: functional, cell-based
# SH-SY5Y [16] = assay: Prevention of STS-induced apoptosis in human SH-SY5Y cells assessed as cell viability at 5 uM measured after 48 hrs by MTT assay; assay type: functional, cell-based
# SH-SY5Y [17] = assay: Prevention of RSL3-induced ferroptosis in human SH-SY5Y cells assessed as cell viability at 5 uM measured after 48 hrs by MTT assay; assay type: functional, cell-based
# SH-SY5Y [18] = assay: Anti-ferroptotic activity against RSL3 induced human SH-SY5Y cells inhibition of RSL3 induced in MDA level at 1.5 uM measured after 16 hrs by lipid peroxidation MDA assay; assay type: functional, cell-based
# SH-SY5Y [19] = assay: Anti-ferroptotic activity against RSL3 induced human SH-SY5Y cells inhibition of RSL3 induced in LPO accumulation at 1.5 uM measured after 16 hrs by BODIPY581/591 based flow cytometric analysis; assay type: functional, cell-based
# SH-SY5Y [20] = assay: Anti-ferroptotic activity against RSL3 induced human SH-SY5Y cells inhibition of RSL3 induced in LPO accumulation at 1.5 uM measured after 16 hrs by DCFH-DA based confocal laser scanning microscopic (CLSM) imaging analysis; assay type: functional, cell-based
# Mus musculus [21] = assay: Protection against middle cerebral artery occlusion (MCAO)-induced Balb/c mouse assessed as reduction in infarct volume in brain at 20 mg/kg, iv (tail vein) measured for 24 hrs by TTC staining (reference value: 50.08%); assay type: functional; set-up: scale not given: the % may be the effect or the level left
# [22] = Toxicity in Balb/c mouse assessed as histopathological changes in heart at 20 mg/kg, iv (tail vein) measured for 24 hrs by H and E staining based analysis; assay type: organism-based; details: in vivo
# [23] = Toxicity in Balb/c mouse assessed as histopathological changes in liver at 20 mg/kg, iv (tail vein) measured for 24 hrs by H and E staining based analysis; assay type: organism-based; details: in vivo
# [24] = Toxicity in Balb/c mouse assessed as histopathological changes in spleen at 20 mg/kg, iv (tail vein) measured for 24 hrs by H and E staining based analysis; assay type: organism-based; details: in vivo
# [25] = Toxicity in Balb/c mouse assessed as histopathological changes in lung at 20 mg/kg, iv (tail vein) measured for 24 hrs by H and E staining based analysis; assay type: organism-based; details: in vivo
# [26] = Toxicity in Balb/c mouse assessed as histopathological changes in kidney at 20 mg/kg, iv (tail vein) measured for 24 hrs by H and E staining based analysis; assay type: organism-based; details: in vivo
# Mus musculus [27] = assay: Protection against middle cerebral artery occlusion (MCAO)-induced Balb/c mouse assessed as reduction in MDA level in lesioned hemisphere at 20 mg/kg, iv (tail vein) measured for 24 hrs by lipid peroxidation MDA assay; assay type: functional, organism-based
# Mus musculus [28] = assay: Protection against middle cerebral artery occlusion (MCAO)-induced Balb/c mouse assessed as reduction in PTGS2 mRNA level in lesioned hemisphere at 20 mg/kg, iv (tail vein) measured for 24 hrs by qRT-PCR analysis; assay type: functional, organism-based
compound,measurement,setting,value
Oc1ccccc1-c1cccn2c(Cc3ccccc3)c(-c3ccccc3)nc12,IC50,SH-SY5Y [1],> 30000 nM
CCOC(=O)CNc1c(-c2ccccc2)nc2ccccn12,IC50,SH-SY5Y [1],2930 nM
c1coc(CNc2c(-c3cscn3)nc3ccccn23)c1,IC50,SH-SY5Y [1],2640 nM
c1ccn2c(NC34C[C@H]5C[C@@H](C3)C[C@@H](C4)C5)c(C3CCCCC3)nc2c1,IC50,SH-SY5Y [1],> 10000 nM
Clc1cccc(CNc2c(-c3cccc(Cl)c3)nc3ccc4ccccc4n23)c1,IC50,SH-SY5Y [1],287 nM
CC(C)(C)Nc1c(-c2ccoc2)nc2ccccn12,IC50,SH-SY5Y [1],> 10000 nM
COc1ccc(Nc2c(-c3cc(Cl)cc(Cl)c3)nc3cc(COCc4cccc(Cl)c4)ccn23)cc1Cl,IC50,SH-SY5Y [1],802 nM
Clc1cc(Cl)cc(CNc2c(-c3cc(Cl)cc(Cl)c3)nc3ccccn23)c1,IC50,SH-SY5Y [1],1930 nM
COc1ccc(Nc2c(-c3cc(Cl)cc(Cl)c3)nc3ccc(N4CCN(C)CC4)cn23)cc1Cl,IC50,SH-SY5Y [1],84 nM
CCOC(=O)CNc1c(-c2ccc(OC)cc2)nc2ccccn12,IC50,SH-SY5Y [1],3940 nM
c1ccn2c(NC34C[C@H]5C[C@@H](C3)C[C@@H](C4)C5)c(-c3cscn3)nc2c1,IC50,SH-SY5Y [1],> 30000 nM
Cc1ccc2nc(-c3ccc(N4CCOCC4)cc3)c(NC3CCCCC3)n2c1,IC50,SH-SY5Y [1],> 10000 nM
FC(F)(F)c1ccccc1-c1nc2ccccn2c1NCc1ccco1,IC50,SH-SY5Y [1],412 nM
FC(F)(F)c1ccccc1-c1nc2ccc3ccccc3n2c1NC1CCCCC1,IC50,SH-SY5Y [1],104 nM
COc1ccc(Nc2c(-c3csc4ccccc34)nc3ccccn23)cc1Cl,IC50,SH-SY5Y [1],195 nM
COc1ccc(Nc2c(-c3c(Cl)cc(Cl)cc3Cl)nc3ccc4ccccc4n23)cc1Cl,IC50,SH-SY5Y [1],22 nM
same,half-life,[2],< 4.8 min
same,half-life,[3],< 4.8 min
same,half-life,[4],< 4.8 min
same,remaining at 12 h,[5],32.2%
same,remaining at 12 h,[6],47.9%
same,remaining at 12 h,[7],42.3%
Clc1cc(Cl)cc(-c2nc3ccccn3c2NC2CCCCC2)c1,IC50,SH-SY5Y [1],625 nM
COc1ccc(-c2nc3ccccn3c2NC2CCCCC2)cc1,IC50,SH-SY5Y [1],> 10000 nM
Nc1ccccc1-c1cn2ccccc2n1,IC50,SH-SY5Y [1],> 10000 nM
Oc1ccccc1-c1cn2ccccc2n1,IC50,SH-SY5Y [1],9880 nM
Oc1ccccc1-c1nc2ccccn2c1Cc1ccccc1,IC50,SH-SY5Y [1],5210 nM
COc1ccc(Nc2c(C3CCCCC3)nc3ccccn23)cc1Cl,IC50,SH-SY5Y [1],97 nM
same,Activity,[8],inactive
same,Activity,[9],inactive
same,Activity,[10],Dose-dependent-effect
same,Ki,[11],2 10^4/M/s
same,Activity,L02,Non-toxic
same,Activity,[12],Non-toxic
same,Activity,HT-1080 [13],Active
same,Activity,OS-RC-2,Active
same,Activity,HT-1080 [14],Active
same,Activity,SH-SY5Y [15],inactive
same,Activity,SH-SY5Y [16],inactive
same,Activity,SH-SY5Y [17],Active
same,Activity,SH-SY5Y [18],Active
same,Activity,SH-SY5Y [19],Active
same,Activity,SH-SY5Y [20],Active
same,half-life,[2],> 720 min
same,half-life,[3],> 720 min
same,half-life,[4],> 720 min
same,remaining at 12 h,[5],91.1%
same,remaining at 12 h,[6],100%
same,remaining at 12 h,[7],100%
same,Activity,Mus musculus [21],25.28%
same,Activity,[22],Non-toxic
same,Activity,[23],Non-toxic
same,Activity,[24],Non-toxic
same,Activity,[25],Non-toxic
same,Activity,[26],Non-toxic
same,Activity,Mus musculus [27],Active
same,Activity,Mus musculus [28],Active
Oc1ccc(-c2cn3ccccc3n2)c(O)c1,IC50,SH-SY5Y [1],2380 nM
COc1ccc(-c2nc3ccccn3c2NC23C[C@H]4C[C@@H](C2)C[C@@H](C3)C4)cc1,IC50,SH-SY5Y [1],1870 nM
Clc1cc(Cl)cc(CNc2c(-c3ccoc3)nc3ccccn23)c1,IC50,SH-SY5Y [1],1560 nM
Cc1cn2cccc(-c3ccccc3O)c2n1,IC50,SH-SY5Y [1],> 30000 nM
COc1ccc(Nc2c(-c3ccccc3Cl)nc3ccc4ccccc4n23)cc1Cl,IC50,SH-SY5Y [1],65 nM
CC(=O)N(O)CCCCCNC(=O)CCC(=O)N(O)CCCCCNC(=O)CCC(=O)N(O)CCCCCN,Activity,[8],Active
same,Activity,[9],Active
COc1ccc(Nc2c(-c3ccoc3)nc3ccccn23)cc1Cl,IC50,SH-SY5Y [1],99 nM
same,Activity,[8],inactive
same,Activity,[9],inactive
same,Activity,[10],Dose-dependent-effect
same,Ki,[11],1.6 10^4/M/s
same,Activity,L02,Non-toxic
same,Activity,[12],Non-toxic
same,Activity,HT-1080 [13],Active
same,Activity,OS-RC-2,Active
same,Activity,HT-1080 [14],Active
same,Activity,SH-SY5Y [15],inactive
same,Activity,SH-SY5Y [16],inactive
same,Activity,SH-SY5Y [17],Active
same,Activity,SH-SY5Y [18],Active
same,Activity,SH-SY5Y [19],Active
same,Activity,SH-SY5Y [20],Active
same,half-life,[2],> 720 min
same,half-life,[3],> 720 min
same,half-life,[4],> 720 min
same,remaining at 12 h,[5],95.8%
same,remaining at 12 h,[6],100%
same,remaining at 12 h,[7],100%
Clc1cc(Cl)cc(-c2nc3ccc4ccccc4n3c2NC2CCCCC2)c1,IC50,SH-SY5Y [1],920 nM
Cc1ccccc1-c1cn2ccccc2n1,IC50,SH-SY5Y [1],> 100000 nM
Clc1cccc(-c2nc3ccccn3c2NC23C[C@H]4C[C@@H](C2)C[C@@H](C3)C4)c1,IC50,SH-SY5Y [1],> 30000 nM
Clc1cccc(CNc2c(-c3cccc(Cl)c3)nc3ccccn23)c1,IC50,SH-SY5Y [1],181 nM
CCOC(=O)c1ccc(NC2CCCCC2)c(N)c1,IC50,SH-SY5Y [1],20 nM
same,Activity,SH-SY5Y [17],Active
same,half-life,[2],40.2 min
same,half-life,[3],> 720 min
same,half-life,[4],126 min
same,remaining at 12 h,[5],7.1%
same,remaining at 12 h,[6],94.1%
same,remaining at 12 h,[7],0%
COc1ccc(Nc2c(C3CCCCC3)nc3ccc(F)cn23)cc1Cl,IC50,SH-SY5Y [1],80 nM
COc1ccc(Nc2c(-c3ccsc3)nc3ccccn23)cc1Cl,IC50,SH-SY5Y [1],476 nM
Cc1cn2cccc(-c3ccccc3N)c2n1,IC50,SH-SY5Y [1],> 100000 nM
COc1ccc(-c2nc3ccccn3c2NC(C)(C)C)cc1,IC50,SH-SY5Y [1],> 30000 nM
Clc1cc(Cl)cc(CNc2c(-c3cscn3)nc3ccccn23)c1,IC50,SH-SY5Y [1],2030 nM
Cc1ccc2nc(-c3cccc(Cl)c3)c(NC(C)(C)C)n2c1,IC50,SH-SY5Y [1],> 10000 nM
Clc1cc(Cl)cc(CNc2c(-c3cc(Cl)cc(Cl)c3)nc3ccc4ccccc4n23)c1,IC50,SH-SY5Y [1],766 nM
c1ccc2c(c1)ccc1nc(-c3ccsc3)c(NC3CCCCC3)n12,IC50,SH-SY5Y [1],426 nM
